Measured values published in patent US20110224214A1, “PROCESS FOR PREPARING POLYMORPH” (SANOFI-AVENTIS U.S. LLC, priority 2008, published 2011).
“Also recorded” adds a separate entry of the source.

Tests used:
[1] = target: peripheral-type benzodiazepine receptors (Homo sapiens, UniProt P30536); details: cited from earlier work
[2] = stability profile of the crystalline form; type: physicochemical
[3] = polymorphic stability during wet granulation (XRPD); type: physicochemical; details: wet granulation of Example 6, dried at 50° C. for 2 hours
Experimental: The sample prepared according the Example 5, above was used to prepare a wet granulation formulation with the following composition: […]
The drug substance product of Example 5, lactose, microcrystalline cellulose (Avicel®, available from FMC BioPolymer, Philadelphia, Pa.), and sodium starch glycolate were pre-blended by screening five times with a 20 mesh screen. For the granulating fluid, the hydroxypropylmethylcellulose was dissolved in hot water at 5% concentration then cooled to 20° C. The sodium lauryl sulfate was dissolved in the cooled granulating fluid at 1.5% concentration. Approximately 50% water (relative to the weight of total solids) was used to prepare the granulation; the granulating fluid was added dropwise to the premixed powders while mixing in a mortar and pestle. The granulation was dried at 50° C. for 2 hours, and then ground in a mortar and pestle prior to analysis.
XRPD patterns were obtained with a Bruker D8® ADVANCE X-ray powder diffractometer using copper K-alpha radiation. The instrument was equipped with parallel beam optics, and the tube voltage and amperage were set to 40 kV and 40 mA, respectively. Samples were scanned at a rate of 1.0 degree/minute from 2 to 40 degrees in angle 2-theta.

[4] = impurity profile by HPLC after annealing; type: physicochemical; details: annealed at 80° C. for 1 hour
Experimental: 4.0 g of drug substance were dissolved in 200 mL of a 50/50 (by volume) mixture of DCM and EtOH at 20° C. The mixture was stirred for about 1 hour. The resulting clear solution was spray dried in a Buchi B290 Mini Spray Dryer by pumping the solution through a 0.7 mm nozzle (commercially available from Buchi) at approximately 2 to 3 mL/minute. The system was operated at an inlet gas temperature of 100° C. and an outlet gas temperature of approximately 70° C. The solvent was removed to isolate the solid (approximately 3.0 g).
The HPLC method parameters utilized in Example 4 were as follows: System HP 1050, column-Waters C8 Symmetry Shield 5 um (4.6×150 mm), Mobile phase (“A”): 0.05% formic acid in water, Mobile phase (“B”): 0.05% formic acid in acetonitrile, injection volume: 10 μl, wavelength: 258 nm, and flow rate: 0.8 mL/minute. A gradient method was used according to the time table below.

peripheral-type benzodiazepine receptors, sequence (P30536 whole entry): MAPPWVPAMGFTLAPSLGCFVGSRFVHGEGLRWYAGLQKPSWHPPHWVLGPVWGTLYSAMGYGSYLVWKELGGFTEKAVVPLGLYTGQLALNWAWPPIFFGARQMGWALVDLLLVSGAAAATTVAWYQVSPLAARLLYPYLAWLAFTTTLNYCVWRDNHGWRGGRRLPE

CN(C)C(=O)Cc1nn(-c2ccccc2)c(=O)c2c1c1ccc(Cl)cc1n2C [7-Chloro-N,N,5-trimethyl-4-oxo-3-phenyl-3,5-dihydro-4H-pyridazino[4,5-b]indole-1-acetamide]
affinity for the peripheral-type benzodiazepine receptors [1]: high affinity

CN(C)C(=O)Cc1nn(-c2ccccc2)c(=O)c2c1c1ccc(Cl)cc1n2C [Form II, 7-chloro-N,N,5-trimethyl-4-oxo-3-phenyl-3,5-dihydro-4H-pyridazino[4,5-b]indole-1-acetamide]
stability profile to support use in a pharmaceutical product [2]: sufficient stability profile | conversion of Form II to crystalline Form I during the wet granulation process (XRPD) [3]: no evidence of the Form II solid converting to crystalline Form I; also recorded: stable with respect to wet granulation | changes in the impurity profile after the annealing process (HPLC) [4]: no changes in the impurity profile
